Experimental data as given in article PMC7484799, “Evolution of isoprenyl diphosphate synthase-like terpene synthases in fungi” (Scientific Reports, 2020).

Legend:
MlpILTPS1 = target: T1, MlpILTPS1 (Melampsora laricis-populina, UniProt A0A858E4Y8); experiment: in vitro terpene synthase assay, SPME GC-MS; format: biochemical; settings: room temperature, 60 min
T1 construct: gene ILTPS1; full-length cDNA from infected Populus nigra leaves in pET-32a, N-terminal His-tag, E. coli BL21(DE3) pLysS
T1 sequence (A0A858E4Y8 1-324): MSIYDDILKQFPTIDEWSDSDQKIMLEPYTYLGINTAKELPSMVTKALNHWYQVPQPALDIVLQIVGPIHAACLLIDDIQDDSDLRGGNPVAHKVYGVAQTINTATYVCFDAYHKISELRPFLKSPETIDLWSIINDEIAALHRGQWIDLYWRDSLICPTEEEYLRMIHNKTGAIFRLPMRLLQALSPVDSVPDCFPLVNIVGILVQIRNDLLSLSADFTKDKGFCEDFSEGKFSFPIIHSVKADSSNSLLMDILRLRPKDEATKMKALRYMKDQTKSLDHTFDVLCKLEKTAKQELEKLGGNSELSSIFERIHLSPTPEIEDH

MlpILTPS2 = target: T2, MlpILTPS2 (Melampsora laricis-populina, UniProt A0A858E4Y6); experiment: in vitro terpene synthase assay, SPME GC-MS; format: biochemical; settings: room temperature, 60 min
T2 construct: gene ILTPS2; full-length cDNA from infected Populus nigra leaves in pET-32a, N-terminal His-tag, E. coli BL21(DE3) pLysS
T2 sequence (A0A858E4Y6 1-316): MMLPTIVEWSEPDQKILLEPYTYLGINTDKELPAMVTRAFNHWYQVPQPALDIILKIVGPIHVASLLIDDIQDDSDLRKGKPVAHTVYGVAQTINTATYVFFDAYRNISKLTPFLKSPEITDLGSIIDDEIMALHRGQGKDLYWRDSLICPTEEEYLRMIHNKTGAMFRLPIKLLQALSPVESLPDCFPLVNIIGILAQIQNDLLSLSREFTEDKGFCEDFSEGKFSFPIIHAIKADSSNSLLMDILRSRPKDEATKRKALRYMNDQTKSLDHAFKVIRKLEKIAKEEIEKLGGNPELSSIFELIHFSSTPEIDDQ

MlpGGDPS = target: T3, MlpGGDPS (Melampsora laricis-populina, UniProt A0A858E7G0); experiment: radiochemical IDS assay, TLC; format: biochemical; settings: MOPS pH 7.0, 10 mM MgCl2, 30 °C; co-substrate [1-14C]-IDP; product GGDP
T3 construct: gene GGDPS; full-length cDNA from infected Populus nigra leaves in pET-32a, N-terminal His-tag, E. coli BL21(DE3) pLysS
T3 sequence (A0A858E7G0 1-364): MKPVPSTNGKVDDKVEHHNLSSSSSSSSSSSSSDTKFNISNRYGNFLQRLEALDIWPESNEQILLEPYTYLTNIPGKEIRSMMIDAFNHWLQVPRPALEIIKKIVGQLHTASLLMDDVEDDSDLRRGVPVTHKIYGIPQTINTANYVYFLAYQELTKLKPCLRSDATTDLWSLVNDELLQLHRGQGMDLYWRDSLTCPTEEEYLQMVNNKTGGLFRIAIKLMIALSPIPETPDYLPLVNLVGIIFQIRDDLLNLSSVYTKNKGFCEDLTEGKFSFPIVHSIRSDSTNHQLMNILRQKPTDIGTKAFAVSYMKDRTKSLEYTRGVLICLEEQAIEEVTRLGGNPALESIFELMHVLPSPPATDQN

MliGGDPS = target: T4, MliGGDPS (Melampsora lini, UniProt A0A858E6N7); experiment: radiochemical IDS assay, TLC; format: biochemical; settings: MOPS pH 7.0, 10 mM MgCl2, 30 °C; co-substrate [1-14C]-IDP; product GGDP
T4 construct: gene GGDPS; full-length synthesized cDNA in pET-32a, N-terminal His-tag, E. coli BL21(DE3) pLysS
T4 sequence (A0A858E6N7 1-365): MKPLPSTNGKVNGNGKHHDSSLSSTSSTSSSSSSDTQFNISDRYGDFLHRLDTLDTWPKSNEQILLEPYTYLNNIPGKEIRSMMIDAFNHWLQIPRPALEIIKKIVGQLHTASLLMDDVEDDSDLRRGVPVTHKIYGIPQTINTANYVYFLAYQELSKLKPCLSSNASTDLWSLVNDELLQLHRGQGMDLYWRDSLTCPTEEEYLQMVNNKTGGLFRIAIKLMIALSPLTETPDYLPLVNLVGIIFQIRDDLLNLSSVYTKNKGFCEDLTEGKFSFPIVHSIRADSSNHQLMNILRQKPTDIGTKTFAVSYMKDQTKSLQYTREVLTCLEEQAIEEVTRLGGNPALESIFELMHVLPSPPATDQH

MliILTPS1 = target: T5, MliILTPS1 (Melampsora lini, UniProt A0A858E7J4); experiment: in vitro terpene synthase assay, SPME GC-MS; format: biochemical; settings: room temperature, 60 min
T5 construct: gene ILTPS1; full-length synthesized cDNA in pET-32a, N-terminal His-tag, E. coli BL21(DE3) pLysS
T5 sequence (A0A858E7J4 1-329): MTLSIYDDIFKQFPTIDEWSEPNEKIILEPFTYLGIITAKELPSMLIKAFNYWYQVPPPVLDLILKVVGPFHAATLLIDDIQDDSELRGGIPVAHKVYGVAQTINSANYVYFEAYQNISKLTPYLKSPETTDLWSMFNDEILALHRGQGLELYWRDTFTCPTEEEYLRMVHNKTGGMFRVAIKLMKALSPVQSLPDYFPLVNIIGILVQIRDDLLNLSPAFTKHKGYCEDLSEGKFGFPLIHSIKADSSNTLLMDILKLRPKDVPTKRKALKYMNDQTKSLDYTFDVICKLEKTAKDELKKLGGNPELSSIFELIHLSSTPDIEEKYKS

[1] = substrate: CC(C)=CCC/C(C)=C/CC/C(C)=C/CO[P@@](=O)(O)OP(=O)(O)O; experiment: radiochemical terpene synthase assay, hexane extraction; format: biochemical, Melampsora lini; settings: MOPSO pH 7.0, 10 mM MgCl2, 0.05 mM MnCl2, room temperature, labelled compound
Description: radiochemical terpene synthase assay, hexane extraction on MliILTPS2 | the apparent Km values of MliILTPS2 and MliILTPS3 using FDP as substrate were determined

[2] = substrate: CC(C)=CCC/C(C)=C/CC/C(C)=C/CO[P@@](=O)(O)OP(=O)(O)O; experiment: as above; format: biochemical, Melampsora lini; settings: MOPSO pH 7.0, 10 mM MgCl2, 0.05 mM MnCl2, room temperature, labelled compound; remark: listed apart in the source
Description: radiochemical terpene synthase assay, hexane extraction on MliILTPS3 | the apparent Km values of MliILTPS2 and MliILTPS3 using FDP as substrate were determined

In the case of `CC(C)=CCC/C(C)=C/CC/C(C)=C/COP(=O)(O)OP(=O)(O)O` [FDP], the “in vitro terpene synthase assay, SPME GC-MS” value (MlpILTPS1; product (E,E)-alpha-farnesene) is reported as “using FDP as substrate, MlpILTPS1 produced (E,E)-α-farnesene”, the “in vitro terpene synthase assay, SPME GC-MS” value (MlpILTPS2; product (E)-nerolidol) is reported as “MlpILTPS2 catalyzed the formation of (E)-nerolidol” and the “radiochemical IDS assay, TLC” value (MlpGGDPS) is reported as “MlpGGDPS catalyzed the formation of GGDP using either DMADP, GDP, or FDP”. For the same molecule, the “radiochemical IDS assay, TLC” value (MliGGDPS) was “MliGGDPS was active with DMADP, GDP, and FDP to produce GGDP” and the “in vitro terpene synthase assay, SPME GC-MS” value (MliILTPS1; product (E)-nerolidol) was “both MliILTPS1 and MliILTPS3 converted FDP to (E)-nerolidol”.

With `CC(C)=CCC/C(C)=C/COP(=O)(O)OP(=O)(O)O` [GDP] the “in vitro terpene synthase assay, SPME GC-MS” value (MlpILTPS1; products (E)-beta-ocimene (major), linalool (minor)) was “When GDP was provided as a substrate, MlpILTPS1 produced (E)-β-ocimene as a major product”, the “in vitro terpene synthase assay, SPME GC-MS” value (MlpILTPS2; product linalool) was “In contrast, MlpILTPS2 produced only linalool” and the “in vitro terpene synthase assay, SPME GC-MS” value (MliILTPS1; product linalool) was “both MliILTPS1 and MliILTPS3 converted GDP to linalool”.

B1: MliILTPS2 (Melampsora lini) (protein)
chain: MSIYDDIFKQFPTIDEWSESNEKIMLEPYTHLGINTAKELPSMVTKAFNHWYQVPQPALDIILQIVGPIHAACLLIDDIQDDSDLRGGNPVAHKVYGVAQTINTATYVCFDAYHKISKLTPFSKSPETTDLWSIINDEIAALHRGQWIDLYWRDSLICPTEEEYLRMIHNKTGAIFRLPIKLLQALSPVDSPPDCFPLVNVVGILVQIRNDLLSLSPDFTKDKGFCEDFSEGKFSFPIIHSVKADSSNSLLIDILRLRPKDEPTKRKALRYMKDQTKSLDHTFDVLCKLEKTAKEELEKLGGNSELSSILELIQVSPIPEIADR
notes: full-length synthesized cDNA in pET-32a, N-terminal His-tag, E. coli BL21(DE3) pLysS
Work on B1 yielded a Km [1] of 1.9 ± 0.3 µM and a kcat [1] of 0.01 ± 0.001 s⁻¹.

B2: MliILTPS3 (Melampsora lini) (protein)
chain: MSIYDDIFKQFPMIDEWSDSDEKILVEPYTYLGINTAKELPSMVTKAFNHWYQVPQPALDIILQIIGPIHAASLLLDDIQDDSDLRGGNPVAHKVYGVAQTINTATYVCFDAYHKVSQLTPFLKSPETTDLWSIINDEIAALHRGQGIELYWRDSLMCPTEEEYLRMIHNKTGAIFRLPIKLLQALSSVDSPPDCFPLLNIVGILFQIQNDISSLSPDFTKDKGFCEDFSEGKFSFPIIHSVKADSSNSLLMDILRLRPKDEATKRKALRFMKDQTKSLDHTFHVLCKLKKTAQEELEKLGGNSELSSILERIQVSPTPEIEDR
notes: as for B1
Molecule B2 has a Km [2] of 1.6 ± 0.2 µM and a kcat [2] of 0.05 ± 0.004 s⁻¹.
